# Measurements from article PMC2678953 (Journal of peptide science : an official publication of the …, 2008).
# Tests used:
# GIVA cPLA2 = target: T1, GIVA cPLA2 (Homo sapiens, UniProt P47712); test: mixed-micelle PLA2 activity assay; type: biochemical
# T1 sequence (P47712 1-749): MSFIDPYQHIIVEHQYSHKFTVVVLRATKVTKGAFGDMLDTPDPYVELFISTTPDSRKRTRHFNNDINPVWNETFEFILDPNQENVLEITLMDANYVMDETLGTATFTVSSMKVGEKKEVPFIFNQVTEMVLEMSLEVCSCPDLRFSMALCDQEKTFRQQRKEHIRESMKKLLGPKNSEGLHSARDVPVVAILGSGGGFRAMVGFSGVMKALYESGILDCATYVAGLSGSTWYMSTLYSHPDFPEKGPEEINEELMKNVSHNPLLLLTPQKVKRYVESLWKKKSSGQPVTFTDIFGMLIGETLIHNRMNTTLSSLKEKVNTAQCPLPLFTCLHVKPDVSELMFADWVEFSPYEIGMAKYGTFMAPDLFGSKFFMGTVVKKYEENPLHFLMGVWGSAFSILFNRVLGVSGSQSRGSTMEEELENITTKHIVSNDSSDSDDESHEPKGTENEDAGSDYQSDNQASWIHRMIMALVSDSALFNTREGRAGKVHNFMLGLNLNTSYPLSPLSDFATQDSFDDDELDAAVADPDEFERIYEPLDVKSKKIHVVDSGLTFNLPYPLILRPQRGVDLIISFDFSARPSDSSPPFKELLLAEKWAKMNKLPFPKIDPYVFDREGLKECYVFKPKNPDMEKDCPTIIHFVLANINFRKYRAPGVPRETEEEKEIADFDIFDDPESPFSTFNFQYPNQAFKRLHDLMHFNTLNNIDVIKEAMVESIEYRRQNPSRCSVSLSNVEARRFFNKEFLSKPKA
# GVIA iPLA2 = target: T2, GVIA iPLA2 (Homo sapiens, UniProt O60733); test: in vitro GVIA iPLA2 activity assay, XI; type: biochemical
# T2 sequence (O60733 1-806): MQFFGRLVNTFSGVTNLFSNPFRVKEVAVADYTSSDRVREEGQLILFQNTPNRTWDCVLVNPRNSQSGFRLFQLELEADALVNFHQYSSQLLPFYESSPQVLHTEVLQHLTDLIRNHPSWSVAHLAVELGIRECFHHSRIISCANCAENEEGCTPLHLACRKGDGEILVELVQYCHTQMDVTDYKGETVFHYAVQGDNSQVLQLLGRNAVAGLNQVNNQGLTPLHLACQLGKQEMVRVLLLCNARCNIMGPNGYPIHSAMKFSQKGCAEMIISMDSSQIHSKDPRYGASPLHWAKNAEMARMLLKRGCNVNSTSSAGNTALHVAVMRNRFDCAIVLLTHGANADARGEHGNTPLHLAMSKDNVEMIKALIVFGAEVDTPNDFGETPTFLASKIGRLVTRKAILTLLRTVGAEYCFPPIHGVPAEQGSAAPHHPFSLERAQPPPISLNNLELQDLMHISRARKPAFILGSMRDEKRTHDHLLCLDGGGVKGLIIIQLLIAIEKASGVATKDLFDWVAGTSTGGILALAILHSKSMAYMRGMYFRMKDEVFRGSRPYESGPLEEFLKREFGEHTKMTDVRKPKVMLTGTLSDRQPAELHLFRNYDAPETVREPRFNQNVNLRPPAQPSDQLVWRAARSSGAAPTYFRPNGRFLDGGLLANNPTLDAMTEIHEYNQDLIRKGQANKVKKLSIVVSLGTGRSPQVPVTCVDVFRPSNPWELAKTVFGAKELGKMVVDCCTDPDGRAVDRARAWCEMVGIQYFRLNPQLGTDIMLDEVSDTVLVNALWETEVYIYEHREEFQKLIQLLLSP
smiles,measurement,setting,value
"CCCCCCCCCCCCCCC(=O)C(=O)NCCCC(=O)N(C)S(=O)(=O)c1ccc(C)cc1 [compound 20, N-[4-(N,4-Dimethylphenylsulfonamido)-4-oxobutyl)-2-oxohexadecanamide]",GIVA cPLA2,GIVA cPLA2,0.033 ± 0.018 mole fraction (XI(50))
"CCCCCCCCCCCCCCC(=O)C(=O)N[C@@H](CCCC)CCCNS(C)(=O)=O [14a, (S)-N-[1-(Methylsulfonamido)octan-4-yl]-2-oxohexadecanamide]",GIVA cPLA2,GIVA cPLA2,0.029 ± 0.019 mole fraction (XI(50))
same,GVIA iPLA2,GVIA iPLA2,0.060 ± 0.037 mole fraction (XI(50))
"CCCCCCCCCCCCCCC(=O)C(=O)N[C@@H](CCCC)CCCNS(=O)(=O)c1ccc(C)cc1 [14b, (S)-N-[1-(4-Methylphenylsulfonamido)octan-4-yl]-2-oxohexadecanamide]",GIVA cPLA2,GIVA cPLA2,0.033 ± 0.018 mole fraction (XI(50))
"CCCCCCCCCCCCCCC(=O)C(=O)NCCCNS(=O)(=O)c1ccc(C)cc1 [5a, N-(3-(4-Methylphenylsulfonamido)propyl)-2-oxohexadecanamide]",GIVA cPLA2,GIVA cPLA2,0.055 ± 0.006 mole fraction (XI(50))
same,GVIA iPLA2,GVIA iPLA2,0.076 ± 0.020 mole fraction (XI(50))
